Experimental data taken from patent publication US8394398B2 (Abbott Laboratories, priority 1997, dated 2013).

Experiments:
[1] = pharmacokinetics after a single intravenous dose in cynomolgus monkey; type: in vivo; conditions: single 2.5 mg/kg intravenous dose, blood, n=3
[2] = tested on: human coronary artery smooth muscle cells (hCaSMC); test: 3H-thymidine uptake proliferation assay, hCaSMC; type: cell-based; conditions: for effect on the antiproliferative activity of zotarolimus in hCaSMC: FIG. 12
Protocol: Experiments were performed to investigate interactions between zotarolimus and the corticosteroid dexamethasone. The effect of dexamethasone on the antiproliferative activity of zotarolimus in human coronary artery smooth muscle ([…]) and endothelial […] determined using an in vitro proliferation assay. The proliferation and migration of vascular smooth muscle cells into the vascular neointima is a characteristic pathologic response seen in restenotic lesions (A. Lafont and P. Libby, The smooth muscle cell: sinner or saint in restenosis and the acute coronary syndromes? […] As a result, in vitro assays which specifically measure the antiproliferative activity of candidate anti-restenotic compounds on human coronary artery smooth muscle and endothelial cells should predict potential anti-restenotic activity in vivo. The tritium incorporation assay is an accurate and sensitive method used in the art to determine cell number and proliferation. Compounds or combinations of compounds which attenuate growth factor-mediated human coronary artery smooth muscle cell […]) proliferation, as measured by the tritium incorporation assay in vitro, are candidate anti-restenotic agents. […] Cell proliferation was monitored by following incorporation of ^3H-thymidine into newly synthesized DNA of cells stimulated by serum and growth factors. Exponentially growing […] were seeded into 96-well flat bottom tissue culture plates at 5,000 cells/well (10,000 cells/well for […]). The cells were allowed to attach overnight. The growth medium was removed the following day and cells were washed twice with unsupplemented (basal) medium to remove traces of serum and growth factors. Basal medium (200 μl) was added to each well and the cells incubated in medium lacking growth factors and serum to starve and synchronize them in the G0 state. After starvation (48 hours for […] and 39 hours for […]) in medium lacking serum and growth factors, the cells were replenished with 200 μl supplemented medium in the absence or presence of drugs at the desired concentrations. […] After a 72-hour incubation period, 25 μl (1 μCi/well) of ^3H-thymidine (Amersham Biosciences) were added to each well. The cells were incubated at 37° C. for 16-18 hours to allow incorporation of ^3H-thymidine into newly synthesized DNA and the cells harvested onto 96-well plates containing bonded glass fiber filters using a cell harvester (Harvester 9600, TOMTEC). […] Controls included medium only, starved cells and cells in complete medium. Drug activity was established by determining the inhibition of ^3H-thymidine incorporation into newly synthesized DNA relative to cells grown in complete medium. […] The final IC50s are means of the 3-4 experiments. In these experiments, the x-axis represents the concentration of the drug being varied. For most of these curves that is zotarolimus alone and in combination with a fixed concentration of dexamethasone. Each graph contains a dexamethasone alone curve and a zotarolimus alone curve. The set of curves in each graph is generated by adding dexamethasone at a fixed concentration (1, 5, 10 or 25 nM) to various concentrations of zotarolimus (0, 0.04, 0.08, 0.8, 4, 8, 40 nM). Each curve represents the dose-response of zotarolimus (whose concentration is given on the x-axis) in the presence of the fixed concentration of dexamethasone given in the legend). […] The concentration eliciting a specific antiproliferative effect was determined using a 4-parameter equation (Equation 1). […]

[3] = tested on: human coronary artery smooth muscle cells (hCaSMC); test: cytokine production by TNFα-treated human coronary artery smooth muscle cells (ELISA); type: cell-based; conditions: TNFα (5 ng/ml), 24 hours; for Maximal Inhibitory Activity, IL-6 / Maximal Inhibitory Activity, Il-8 / Maximal Inhibitory Activity, MCP-1: hCaSMC
Protocol: (§1) Experiments were performed to determine the effects of zotarolimus, sirolimus and dexamethasone on the production of TNFα, IL-6 and MCP-1 by activated human monocytes In addition to monocytes and macrophages two other key cell types are involved in the etiology of restenosis, arterial smooth muscle and endothelial cells. These cells are activated and produce cytokines in response to TNFα. […] The activation of cytokine production by human coronary artery smooth muscle and endothelial cells following TNFα treatment was determined by measuring interleukine-8 (IL-8), MCP-1 and IL-6 production. As shown by the results of the experiments described below, the ability of these compounds to inhibit the production of cytokines supports their use in combination as anti-restenotic agents since these cytokines play a role in the development of restenosis. […] After 24 hours, the supernatants were carefully collected and TNFα, IL-6 and MCP-1 levels determined by ELISA. Primary cultures of human coronary artery endothelial and smooth muscle cells were obtained from Cambrex and maintained as described by the vendor. […] After 24 hours the supernatants were removed and replaced with media containing TNFα (5 ng/ml) in the presence and absence of various concentrations of zotarolimus, dexamethasone or sirolimus. The cells were incubated for 24 hours and the supernatants carefully removed and frozen until measurement. Cytokine levels were measured in the supernatants by sandwich ELISA.

[4] = accelerated in vitro elution from PC-1036 coated stents; type: physicochemical
[5] = tested on: human monocytes; test: cytokine production by LPS-stimulated human monocytes (ELISA); type: cell-based; conditions: for MCP-1 production by human monocytes in vitro: FIG. 10; for production of TNFα and IL-6 by human monocytes: FIGS. 10 and 11; for Maximal Inhibitory Activity, IL-6 / Maximal Inhibitory Activity, MCP-1 / Maximal Inhibitory Activity, TNF: Monocytes, 24 hours
Protocol: as §1

[6] = tested on: human coronary artery endothelial cells (hCaEC); test: 3H-thymidine uptake proliferation assay, hCaEC; type: cell-based
[7] = tested on: human coronary artery endothelial cells (hCaEC); test: cytokine production by TNFα-treated human coronary artery endothelial cells (ELISA); type: cell-based; conditions: TNFα (5 ng/ml), 24 hours
Protocol: as §1

Row | AUC [1] | Compound | Maximal Inhibitory Activity, IL-6 [3] | Maximal Inhibitory Activity, Il-8 [3] | Maximal Inhibitory Activity, MCP-1 [3] | MCP-1 production by human monocytes in vitro [5] | production of TNFα and IL-6 by human monocytes [5] | Maximal Inhibitory Activity, IL-6 [5] | Maximal Inhibitory Activity, MCP-1 [5] | Maximal Inhibitory Activity, TNF [5] | Maximal Inhibitory Activity, IL-6 [7] | Maximal Inhibitory Activity, Il-8 [7] | Maximal Inhibitory Activity, MCP-1 [7] | further results
1 | 5.59 ng·h/mL | COC1CC2CCC(C)C(O)(O2)C(=O)C(=O)N2CCCCC2C(=O)OC(C(C)CC2CCC(n3ccc(=O)cc3)C(OC)C2)CC(=O)C(C)C=C(C)C(O)C(OC)C(=O)C(C)CC(C)C=CC=CC=C1C (stereo not drawn) [Example 4-pyridone, 40-epi-N-[4′-pyridone]-rapamycin] | – | – | – | – | – | – | – | – | – | – | – | –
2 | – | C[C@@H]1C[C@H]2[C@@H]3CCC4=CC(=O)C=C[C@]4(C)[C@@]3(F)[C@@H](O)C[C@]2(C)[C@@]1(O)C(=O)CO [Dexamethasone] | + (+ indicates maximal inhibitory activity of 50-75% of control) | + (+ indicates maximal inhibitory activity of 50-75% of control) | + (+ indicates maximal inhibitory activity of 50-75% of control) | dose-dependently inhibit MCP-1 production | potently blocks the production of TNFα and IL-6 | +++ (+++ indicates maximal inhibitory activity of 75-100% of control) | + (+ indicates maximal inhibitory activity of 50-75% of control) | +++ (+++ indicates maximal inhibitory activity of 75-100% of control) | − (− indicates maximal inhibitory activity less than 50% of control) | − (− indicates maximal inhibitory activity less than 50% of control) | − (− indicates maximal inhibitory activity less than 50% of control) | IC50 ([2]; Homo sapiens, 3 h, read-out: hCaSMC IC50 Mean ± SEM): 9.3 nM; inhibition of hCaSMC proliferation ([2]; dexamethasone alone at or above 10 nM): N.D.* Not detectable: Concentrations of dexamethasone alone at or above 10 nM inhibit proliferation by greater than 50% preventing calculation of zotarolimus IC50's in these experiments.; block of hCaSMC IL-6 production [3]: 65.7%; block of hCaSMC IL-8 production [3]: 68.4%; block of hCaSMC MCP-1 production [3]: 57.2%; burst release at the beginning of elution ([4]; stent with 10 μg/mm each drug, 5 μg/mm PC-1036 topcoat, 10 mM acetate buffer pH 4.0, 1% Solutol HS 15, 37° C., 24-hour profile): slightly larger burst release at the beginning than zotarolimus; effect on the elution profile of zotarolimus ([4]; zotarolimus alone vs in the presence of dexamethasone, same conditions): little effect on the elution profile of zotarolimus; effect on proliferation of hCaEC ([6]; FIG. 13): does not affect the proliferation of hCaEC; IC50 ([6]; Homo sapiens, Endothelial cell, 3 h, read-out: hCaEC IC50 Mean ± SEM): > 10000 nM
3 | – | C=CC[C@@H]1/C=C(\C)C[C@H](C)C[C@H](OC)[C@H]2O[C@@](O)(C(=O)C(=O)N3CCCC[C@H]3C(=O)O[C@H](/C(C)=C/[C@@H]3CC[C@@H](O)[C@H](OC)C3)[C@H](C)[C@@H](O)CC1=O)[C@H](C)C[C@@H]2OC [tacrolimus] | – | – | – | – | – | – | – | – | – | – | – | effect on the antiproliferative activity of zotarolimus in hCaSMC ([2]; tacrolimus 100 nM): increased the IC50 of zotarolimus; effect on the antiproliferative activity of zotarolimus in hCaSMC ([2]; tacrolimus 250 nM or greater, zotarolimus 4 nM): completely blocked the activity of zotarolimus
4 | – | CO[C@H]1C[C@@H]2CC[C@@H](C)[C@@](O)(O2)C(=O)C(=O)N2CCCC[C@H]2C(=O)O[C@H]([C@H](C)C[C@@H]2CC[C@@H](O)[C@H](OC)C2)CC(=O)[C@H](C)/C=C(\C)[C@@H](O)[C@@H](OC)C(=O)[C@H](C)C[C@H](C)/C=C/C=C/C=C/1C [Rapamycin] | − (− indicates maximal inhibitory activity less than 50% of control) | − (− indicates maximal inhibitory activity less than 50% of control) | − (− indicates maximal inhibitory activity less than 50% of control) | dose-dependently inhibit MCP-1 production | not demonstrated | − (− indicates maximal inhibitory activity less than 50% of control) | +++ (+++ indicates maximal inhibitory activity of 75-100% of control) | − (− indicates maximal inhibitory activity less than 50% of control) | − (− indicates maximal inhibitory activity less than 50% of control) | − (− indicates maximal inhibitory activity less than 50% of control) | − (− indicates maximal inhibitory activity less than 50% of control) | –
5 | 2.55 ng·h/mL | 40-epi-N-[2′-pyridone]-rapamycin [Example 2-pyridone] | – | – | – | – | – | – | – | – | – | – | – | –
